# According to patent US10124004B2, “Pyrido[3,4-d]pyrimidine derivative and pharmaceutically acceptable salt thereof” (Teijin Pharma Limited, priority 2015, dated 2018):
# Molecular target: T1, CDK4/cyclin D3 (Homo sapiens, UniProt P11802)
# T1 construct: purchased Carna Biosciences, Inc. QS S Assist CDK4/Cyclin D3_FP Kit
# Test: Human CDK4/cyclin D3 inhibitory activity (QS S Assist CDK4/Cyclin D3_FP Kit, IMAP fluorescence polarization)
# Format: biochemical
# Details: Human CDK4/cyclin D3 inhibitory activity; read-out: CDK4 Activity symbol
# Method: Human CDK4/Cyclin D3 Inhibitory Activity
# Each compound was analyzed for CDK4/cyclin D3 inhibitory activity with an assay kit (QS S Assist CDK4/Cyclin D3_FP Kit, available from Carna Biosciences, Inc.). This assay kit determines kinase activity on the basis of the IMAP technology by Molecular Devices. Specifically, the kinase activity is determined through quantification of a variation in fluorescent polarization caused by binding of a kinase-phosphorylated fluorescent substance to an IMAP-binding reagent.
# Each solution was prepared with the 10× assay buffer attached to the kit or a separately prepared assay buffer having the same composition as the assay buffer attached to the kit. An assay buffer was prepared by 10-fold dilution of the 10× assay buffer with distilled water. The assay buffer contains 20 mM HEPES (pH 7.4), 0.01% Tween20, and 2 mM dithiothreitol. A test compound solution was prepared by dilution of the test compound with dimethyl sulfoxide (DMSO) to a concentration 100 times higher than the final concentration and then 25-fold dilution with the assay buffer to a concentration four times higher than the final concentration. An ATP/substrate/Metal solution was prepared by five-fold dilution of the 5×ATP/substrate/Metal solution attached to the kit with the assay buffer. An enzyme solution was prepared by dilution of the CDK4/cyclin D3 attached to the kit with the assay buffer to a concentration twice higher than the final concentration (final concentration of CDK4/cyclin D3:12.5 to 25 ng/well). A detection reagent was prepared by five-fold dilution of each of 5× IMAP-binding buffer A and 5×IMAP-binding buffer B with distilled water, mixing of IMAP-binding buffer A with IMAP-binding buffer B at a ratio of 85:15, and 400-fold dilution of the IMAP-binding reagent with the mixed buffer.
# The test compound solution (5 μL/well) and the ATP/substrate/Metal solution (5 μL/well) were added to a 384-well plate, and the enzyme solution or the assay buffer (10 μL/well) was added to the plate (total amount of the reaction mixture: 20 μL/well) for initiation of enzymatic reaction. […] The reaction was performed at room temperature for 45 minutes, and the detection reagent (60 μL/well) was then added to the plate, followed by further reaction for 30 minutes at room temperature under light shielding conditions. Subsequently, fluorescent polarization was determined with a microplate reader at an excitation wavelength of 485 nm and an emission wavelength of 535 nm.
# The percent inhibition of enzyme activity was calculated for each test compound (note: enzyme activity=100% in the case of addition of the enzyme solution and addition of DMSO instead of the test compound solution, whereas enzyme activity=0% in the case of addition of the assay buffer instead of the enzyme solution, and addition of DMSO instead of the test compound solution). The percent inhibition of enzyme activity was fitted to a dose-response curve, to determine a 50% inhibitory concentration against CDK4/cyclin D3.
# In each table, “+++” corresponds to IC50<10 nM, “++” 10 nM≤IC50<100 nM, and “+” 100 nM≤IC50.
# T1 sequence (P11802 whole entry): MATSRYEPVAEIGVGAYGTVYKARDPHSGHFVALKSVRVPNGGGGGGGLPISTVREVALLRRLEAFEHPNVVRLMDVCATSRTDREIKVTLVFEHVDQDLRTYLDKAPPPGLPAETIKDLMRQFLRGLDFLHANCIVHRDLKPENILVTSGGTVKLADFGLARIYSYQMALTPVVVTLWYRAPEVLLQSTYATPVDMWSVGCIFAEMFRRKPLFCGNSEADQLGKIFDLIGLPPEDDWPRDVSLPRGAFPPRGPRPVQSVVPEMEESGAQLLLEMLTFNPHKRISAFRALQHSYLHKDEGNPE
# T1 sequence (P30281 whole entry partner): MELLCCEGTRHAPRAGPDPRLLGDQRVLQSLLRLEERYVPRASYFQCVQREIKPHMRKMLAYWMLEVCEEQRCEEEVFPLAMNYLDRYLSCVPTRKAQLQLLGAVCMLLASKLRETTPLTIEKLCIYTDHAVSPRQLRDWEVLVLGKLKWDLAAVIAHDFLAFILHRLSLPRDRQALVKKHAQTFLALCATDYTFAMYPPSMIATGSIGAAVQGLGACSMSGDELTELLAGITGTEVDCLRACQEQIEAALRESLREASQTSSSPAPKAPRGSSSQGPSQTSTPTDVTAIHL
row,Compound,IC50 [µM]
1,COC(C)c1cc2cnc(Nc3ccc(CN4CCNCC4)cn3)nc2c(N[C@H]2CC[C@](C)(C(=O)O)CC2)n1 (stereo partly drawn) [Compound 436],0.01 to 0.1
2,COC(C)c1cc2cnc(Nc3ccc(CN4CCNCC4)cn3)nc2c(N[C@H]2CC[C@@](C)(C(=O)O)CC2)n1 (stereo partly drawn) [Compound 437],≥ 0.1
3,CC(C)Nc1nc(C(F)F)cc2cnc(Nc3ccc(N4CCNC(C)(C)C4=O)cn3)nc12 [Compound 438],< 0.01
4,CC1(C)NCCN(c2ccc(Nc3ncc4cc(C(F)F)nc(NC5CCOCC5)c4n3)nc2)C1=O [Compound 439],0.01 to 0.1
5,CC(C)Nc1nc([C@@H](C)O)cc2cnc(Nc3ccc(N4CCNC(C)(C)C4=O)cn3)nc12 [Compound 440],0.01 to 0.1
6,C[C@@H](O)c1cc2cnc(Nc3ccc(N4CCNC(C)(C)C4=O)cn3)nc2c(NC2CCOCC2)n1 [Compound 441],≥ 0.1
7,CC1(C)NCCN(c2ccc(Nc3ncc4cc(C(F)F)nc(N[C@H]5CC[C@H](C(=O)O)CC5)c4n3)nc2)C1=O [Compound 442],≥ 0.1
8,CC1(C)NCCN(c2ccc(Nc3ncc4cc(C(F)F)nc(N[C@H]5CC[C@H](O)CC5)c4n3)nc2)C1=O [Compound 443],0.01 to 0.1
9,CO[C@H](C)c1cc2cnc(Nc3ccc(N4CCNC(C)(C)C4=O)cn3)nc2c(NC(C)C)n1 [Compound 444],≥ 0.1
10,COC(C)c1cc2cnc(Nc3ccc(CN4CCNCC4)cn3)nc2c(NC2CCCCCC2)n1 (stereo not drawn) [Compound 445],< 0.01
11,COC(C)c1cc2cnc(Nc3ccc(CN4CCNCC4)cn3)nc2c(Nc2ccc(F)cc2)n1 (stereo not drawn) [Compound 446],0.01 to 0.1
12,COC(C)c1cc2cnc(Nc3ccc(CN4CCNCC4)cn3)nc2c(Nc2cccc(F)c2)n1 (stereo not drawn) [Compound 447],0.01 to 0.1
13,COC(C)c1cc2cnc(Nc3ccc(CN4CCNCC4)cn3)nc2c(Nc2ccc(C(=O)O)cc2)n1 (stereo not drawn) [Compound 448],≥ 0.1
14,COC(C)c1cc2cnc(Nc3ccc(CN4CCNCC4)cn3)nc2c(Nc2cccc(C(=O)O)c2)n1 (stereo not drawn) [Compound 449],≥ 0.1
15,COc1ccc(Nc2nc(C(C)OC)cc3cnc(Nc4ccc(CN5CCNCC5)cn4)nc23)cc1 (stereo not drawn) [Compound 450],< 0.01
16,COc1cccc(Nc2nc(C(C)OC)cc3cnc(Nc4ccc(CN5CCNCC5)cn4)nc23)c1 (stereo not drawn) [Compound 451],< 0.01
17,CNC1CCN(c2ccc(Nc3ncc4cc(C(C)OC)nc(NC(C)C)c4n3)nn2)CC1 (stereo not drawn) [Compound 452],< 0.01
18,COC(C)c1cc2cnc(Nc3ccc(N4CCCNCC4)cn3)nc2c(NC(C)C)n1 (stereo not drawn) [Compound 453],< 0.01
19,COC(C)c1cc2cnc(Nc3ccc(CN4CCNCC4)cn3)nc2c(NCC2(C)CC(O)CC(C)(C)C2)n1 (stereo not drawn) [Compound 454],< 0.01
20,COC(C)c1cc2cnc(Nc3ccc(CN4CCNCC4)cn3)nc2c(NC23CC4CC(CC(O)(C4)C2)C3)n1 (stereo not drawn) [Compound 455],< 0.01

row,Compound,IC50 [µM]
1,COC(C)c1cc2cnc(Nc3ccc(OCC4(N)CC4)cn3)nc2c(NC(C)C)n1 (stereo not drawn) [Compound 457],< 0.01
2,COC(C)c1cc2cnc(Nc3ccc(OCC(C)(C)N)cn3)nc2c(NC(C)C)n1 (stereo not drawn) [Compound 458],< 0.01
3,CNC1(COc2ccc(Nc3ncc4cc(C(C)OC)nc(NC(C)C)c4n3)nc2)CC1 (stereo not drawn) [Compound 461],0.01 to 0.1
4,CO[C@H](C)c1cc2cnc(Nc3ccc(N4CCN[C@H](C)C4=O)cn3)nc2c(NC(C)C)n1 [Compound 462],0.01 to 0.1
5,COC(C)c1cc2cnc(Nc3ccc(CN4CCNCC4)cn3)nc2c(N[C@H]2CC[C@H](OC(C)C)CC2)n1 (stereo partly drawn) [Compound 464],< 0.01
6,COC(C)c1cc2cnc(Nc3ccc(CN4CCNCC4)cn3)nc2c(NCC2CC(F)(F)C2)n1 (stereo not drawn) [Compound 465],< 0.01
7,COC(C)c1cc2cnc(Nc3ccc(CN4CCNCC4)cn3)nc2c(NC2CCCOCC2)n1 (stereo not drawn) [Compound 468],< 0.01
8,CO[C@H](C)c1cc2cnc(Nc3ccc(N4CCC(F)CC4)cn3)nc2c(NC(C)C)n1 [Compound 469],0.01 to 0.1
9,CO[C@H](C)c1cc2cnc(Nc3ccc(N4CCC(F)(F)CC4)cn3)nc2c(NC(C)C)n1 [Compound 470],≥ 0.1
10,CO[C@H](C)c1cc2cnc(Nc3ccc(OCCN(C)C)nn3)nc2c(NC(C)C)n1 [Compound 471],0.01 to 0.1
11,CO[C@H](C)c1cc2cnc(Nc3ccc(CN4CCC(F)CC4)cn3)nc2c(NC(C)C)n1 [Compound 472],0.01 to 0.1
12,CO[C@H](C)c1cc2cnc(Nc3ccc(OC4CCNCC4(F)F)cn3)nc2c(NC(C)C)n1 (stereo partly drawn) [Compound 473],0.01 to 0.1
13,COC(C)c1cc2cnc(Nc3ccc(CN4CCNCC4)cn3)nc2c(NC23CCC(C(=O)O)(CC2)CC3)n1 (stereo not drawn) [Compound 475],0.01 to 0.1
14,CO[C@H](C)c1cc2cnc(Nc3ccc(N4CC5(CNC5)C4)cn3)nc2c(NC(C)C)n1 [Compound 476],< 0.01
15,CO[C@H](C)c1cc2cnc(Nc3ccc(N4CC5(CCCNC5)C4)cn3)nc2c(NC(C)C)n1 [Compound 477],< 0.01
16,CO[C@H](C)c1cc2cnc(Nc3ccc(N4CC5(CCN5)C4)cn3)nc2c(NC(C)C)n1 [Compound 478],< 0.01
17,CO[C@H](C)c1cc2cnc(Nc3ccc(N4CC5(CCNC5)C4)cn3)nc2c(NC(C)C)n1 [Compound 479],< 0.01
18,CO[C@H](C)c1cc2cnc(Nc3ccc(N4CC5(CCC5)C4)cn3)nc2c(NC(C)C)n1 [Compound 480],0.01 to 0.1
19,CO[C@H](C)c1cc2cnc(Nc3ccc(N4CCC5(CC4)COC5)cn3)nc2c(NC(C)C)n1 [Compound 481],0.01 to 0.1
20,CO[C@H](C)c1cc2cnc(Nc3ccc(N4CC5(CCNCC5)C4)cn3)nc2c(NC(C)C)n1 [Compound 482],< 0.01

row,Compound,IC50 [µM]
1,CO[C@H](C)c1cc2cnc(Nc3ccc(OC4CC5(CNC5)C4)cn3)nc2c(NC(C)C)n1 [Compound 483],< 0.01
2,CO[C@H](C)c1cc2cnc(Nc3ccc(N4CC5(CC(N)C5)C4)cn3)nc2c(NC(C)C)n1 [Compound 484],< 0.01
3,CO[C@H](C)c1cc2cnc(Nc3ccc(NC4CC5(CNC5)C4)cn3)nc2c(NC(C)C)n1 [Compound 485],< 0.01
4,CO[C@H](C)c1cc2cnc(Nc3ccc(N4CC5(CCCN5)C4)cn3)nc2c(NC(C)C)n1 [Compound 486],< 0.01
5,CO[C@H](C)c1cc2cnc(Nc3ccc(OCC(F)CN(C)C)cn3)nc2c(NC(C)C)n1 (stereo partly drawn) [Compound 487],< 0.01
6,CO[C@H](C)c1cc2cnc(Nc3ccc(N4CCCN(C)CC4)nn3)nc2c(NC(C)C)n1 [Compound 488],< 0.01
7,CO[C@H](C)c1cc2cnc(Nc3ccc(N4CCC(N(C)C)CC4)nn3)nc2c(NC(C)C)n1 [Compound 489],< 0.01
8,CC(C)Nc1nc([C@@H](C)O)cc2cnc(Nc3ccc(N4CCCN(C)CC4)nn3)nc12 [Compound 490],< 0.01
9,CO[C@H](C)c1cc2cnc(Nc3ccc(CN4CCCNCC4)cn3)nc2c(NC(C)C)n1 [Compound 493],< 0.01
10,CO[C@H](C)c1cc2cnc(Nc3ccc(CN4CCC(O)CC4)cn3)nc2c(NC(C)C)n1 [Compound 494],< 0.01
11,CO[C@H](C)c1cc2cnc(Nc3ccc(N4CCCNCC4)nn3)nc2c(NC(C)C)n1 [Compound 495],< 0.01
12,CC(C)Nc1nc([C@@H](C)O)cc2cnc(Nc3ccc(N4CCCNCC4)nn3)nc12 [Compound 496],< 0.01
13,CO[C@H](C)c1cc2cnc(Nc3ccc(N4CCNC4=O)cn3)nc2c(NC(C)C)n1 [Compound 498],< 0.01
14,CO[C@H](C)c1cc2cnc(Nc3ccc(N4C5CCC4CNC5)cn3)nc2c(NC(C)C)n1 [Compound 500],< 0.01
15,CO[C@H](C)c1cc2cnc(Nc3ccc(N4C5CCC4CC(N)C5)cn3)nc2c(NC(C)C)n1 (stereo partly drawn) [Compound 502],< 0.01
16,CNC1C2CCC1CN(c1ccc(Nc3ncc4cc([C@@H](C)OC)nc(NC(C)C)c4n3)nc1)C2 (stereo partly drawn) [Compound 503],< 0.01
17,CO[C@H](C)c1cc2cnc(Nc3ccc(OC4CC5CCC(C4)N5)cn3)nc2c(NC(C)C)n1 (stereo partly drawn) [Compound 504],< 0.01
18,CO[C@H](C)c1cc2cnc(Nc3ccc(OCC4(N)CCC4)cn3)nc2c(NC(C)C)n1 [Compound 505],0.01 to 0.1
19,CC(C)Nc1nc([C@@H](C)O)cc2cnc(Nc3ccc(N4CCN[C@H](C)C4=O)cn3)nc12 [Compound 506],0.01 to 0.1
20,COC(C)c1cc2cnc(Nc3ccc(CN4CCNCC4)cn3)nc2c(NC2CC3(C2)CC(C(=O)O)C3)n1 (stereo not drawn) [Compound 513],0.01 to 0.1
